According to ChEMBL document CHEMBL1201862, “PubChem BioAssay data set” (2004):
One block for each molecule: values may come before it. Calls of active or inactive are those of the source.

Experiments:
[1] = biological target: T1, Methionyl-tRNA synthetase, putative (Trypanosoma brucei brucei, UniProt Q38C91); format: functional, Trypanosoma brucei brucei strain 927/4 GUTat10.1
T1 sequence (Q38C91 whole entry): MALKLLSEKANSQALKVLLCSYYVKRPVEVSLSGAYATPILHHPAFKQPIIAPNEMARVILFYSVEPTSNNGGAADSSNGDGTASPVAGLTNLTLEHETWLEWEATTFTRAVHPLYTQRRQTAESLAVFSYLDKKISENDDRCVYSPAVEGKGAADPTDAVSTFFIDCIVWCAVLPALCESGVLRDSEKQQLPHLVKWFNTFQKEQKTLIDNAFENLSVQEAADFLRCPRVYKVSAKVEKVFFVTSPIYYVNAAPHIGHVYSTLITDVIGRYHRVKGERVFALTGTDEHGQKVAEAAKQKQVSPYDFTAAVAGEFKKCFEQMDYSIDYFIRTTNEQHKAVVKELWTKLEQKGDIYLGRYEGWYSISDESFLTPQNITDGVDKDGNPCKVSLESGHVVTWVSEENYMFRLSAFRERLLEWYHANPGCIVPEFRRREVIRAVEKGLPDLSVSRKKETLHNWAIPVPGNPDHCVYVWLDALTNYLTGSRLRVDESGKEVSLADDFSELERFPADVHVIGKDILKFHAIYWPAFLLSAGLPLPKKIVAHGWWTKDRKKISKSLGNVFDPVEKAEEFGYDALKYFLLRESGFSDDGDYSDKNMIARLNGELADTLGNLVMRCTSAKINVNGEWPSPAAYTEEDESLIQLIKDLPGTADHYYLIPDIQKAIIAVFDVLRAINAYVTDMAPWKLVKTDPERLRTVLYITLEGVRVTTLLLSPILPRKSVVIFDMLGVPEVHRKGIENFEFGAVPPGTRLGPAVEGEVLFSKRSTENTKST

[2] = biological target: FAD-linked sulfhydryl oxidase ALR (Homo sapiens, UniProt P55789); assay: ALR-catalysed DTT oxidation blockers – biochemical, H2O2 detection, luminescence, cherry-pick, dose response (AID 493248)
[3] = biological target: T1, Methionyl-tRNA synthetase, putative; format: functional, Trypanosoma brucei brucei strain 927/4 GUTat10.1; remark: listed apart in the source
[4] = Counterscreen for inhibitors of Trypanosoma brucei methionyl tRNA synthetase (MetRS): Luminescence-based cell-based high throughput dose response assay to identify compounds that are cytotoxic to Jurkat human T lymphocyte cells.; format: functional
[5] = Late stage counterscreen for inhibitors of Trypanosoma brucei methionyl tRNA synthetase (MetRS): Luminescence-based cell-based high throughput dose response assay to identify compounds that are cytotoxic to Jurkat human T lymphocyte cells.; format: functional
Kallikrein-7 = Kallikrein-7 (Homo sapiens, UniProt P49862); assay: Fluorescence Intensity-based biochemical primary high throughput dose response assay to identify activators of kallikrein-7 (K7) zymogen.
[6] = Trypanosoma cruzi growth suppression in host cells – NIH3T3 host cells, beta-gal luminescence, confirmation (AID 2044); format: functional, cell-based;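 further: intracellular parasites grown in NIH/3T3 mouse fibroblasts as host cells; luminescent beta-galactosidase reporter signal from transgenic T. cruzi replicating inside host cells; inhibitors lower the luminescence signal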
[7] = Shn3 transcript knock-down in Clone20 cells – cell-based, qPCR, cherry-pick, dose response (AID 743415); format: functional
HEK293 [8] = assay: inhibition of NOD1-driven NF-kB reporter – cell-based, luminescence, uHTS, primary screen (AID 1578); format: functional; settings: Homo sapiens
CAAX prenyl protease 2 = biological target: T2, CAAX prenyl protease 2 (Saccharomyces cerevisiae S288c, UniProt Q03530); format: biochemical
T2 sequence (Q03530 whole entry): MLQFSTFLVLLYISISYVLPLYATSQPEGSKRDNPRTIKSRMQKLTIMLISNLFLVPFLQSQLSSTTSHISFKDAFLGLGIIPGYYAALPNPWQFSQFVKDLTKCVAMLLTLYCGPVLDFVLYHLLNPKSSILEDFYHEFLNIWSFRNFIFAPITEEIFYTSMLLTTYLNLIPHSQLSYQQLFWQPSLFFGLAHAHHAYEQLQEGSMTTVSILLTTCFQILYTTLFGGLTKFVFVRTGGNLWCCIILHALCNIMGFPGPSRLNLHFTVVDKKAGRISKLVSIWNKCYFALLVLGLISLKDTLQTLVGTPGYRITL

HEK293 [9] = assay: cells; format: functional, cell-based; settings: Homo sapiens
Protein Wnt-3a = Protein Wnt-3a (Mus musculus, UniProt P27467); assay: antagonism of Wnt3a pathway luciferase reporter – Wnt-LIGHT cells, luminescence, selectivity assay for Gli-SUFU antagonist project, dose response (AID 651570); format: functional; settings: read-out: IC50_Mean;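 further: Wnt-LIGHT reporter cells stimulated with conditioned medium from Wnt3a-producing cells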
[10] = biological target: Nucleotide-binding oligomerization domain-containing protein 2 (Homo sapiens, UniProt Q9HC29); assay: inhibition of NOD2-driven NF-kB reporter – cell-based, luminescence, uHTS, HEK293 (AID 1566); format: functional
HEK293 [11] = assay: cells; format: functional, cell-based; settings: Homo sapiens; remark: listed apart in the source
INS1 = assay: INS-1E survival protection against cytokine death – cell-based, luminescence, retest, dose response (AID 449756); format: functional; settings: Rattus norvegicus;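 further: cell death triggered by IL-1 beta plus TNF-alpha plus IFN-gamma mixture; protective hits raise ATP signal compared with cytokine alone wells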
HEK293 [12] = assay: cells; format: functional, cell-based; settings: Homo sapiens; remark: listed apart in the source
[13] = reduction of Shn3 3'UTR-driven luciferase in osteoblasts – cell-based, Clone20 osteoblasts, firefly luciferase, cherry-picked, dose response (AID 624132); format: functional;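 further: firefly luciferase luminescence from reporter carrying the Shn3 3'UTR in osteoblasts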
[14] = biological target: T3, Corticotropin-releasing factor receptor 2/Corticotropin-releasing factor-binding protein (Homo sapiens, UniProt P24387+Q13324); assay: activators of CRF receptor 2 with binding protein – uHTS hits, confirmation (AID 602473); format: functional; settings: read-out: EC50_Mean
T3 sequence (Q13324 whole entry): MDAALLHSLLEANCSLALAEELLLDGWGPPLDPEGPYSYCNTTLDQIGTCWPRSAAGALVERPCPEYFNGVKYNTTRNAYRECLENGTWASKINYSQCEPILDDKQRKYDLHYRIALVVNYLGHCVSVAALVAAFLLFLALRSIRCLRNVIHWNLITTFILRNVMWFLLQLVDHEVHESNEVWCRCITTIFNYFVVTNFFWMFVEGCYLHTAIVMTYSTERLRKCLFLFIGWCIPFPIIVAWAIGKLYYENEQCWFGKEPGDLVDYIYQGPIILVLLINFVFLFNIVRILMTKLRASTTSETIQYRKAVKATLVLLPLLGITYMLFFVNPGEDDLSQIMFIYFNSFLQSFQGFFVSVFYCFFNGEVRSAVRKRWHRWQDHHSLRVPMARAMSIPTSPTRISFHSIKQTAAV
T3 sequence (P24387 whole entry): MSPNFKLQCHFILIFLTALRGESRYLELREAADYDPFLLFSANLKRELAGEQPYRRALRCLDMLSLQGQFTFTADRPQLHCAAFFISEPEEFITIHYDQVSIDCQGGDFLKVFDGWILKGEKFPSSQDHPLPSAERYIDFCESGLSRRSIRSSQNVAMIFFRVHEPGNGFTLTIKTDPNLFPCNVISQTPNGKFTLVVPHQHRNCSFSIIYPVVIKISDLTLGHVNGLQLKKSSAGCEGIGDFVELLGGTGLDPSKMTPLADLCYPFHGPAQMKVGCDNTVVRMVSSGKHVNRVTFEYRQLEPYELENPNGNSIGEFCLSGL

[15] = NIH3T3 cell viability loss – ATP luminescence, mouse fibroblasts, counter-screen, dose response (AID 2010); format: functional, cell-based;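 further: cells exposed to compound for about 90 hours before reading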
HEK293 [16] = assay: NOD2 signaling inhibitors in MDP-stimulated cells, cell-based, uHTS, luminescence (AID 2001); format: functional; settings: Homo sapiens
[17] = Shn3 3'UTR reporter signal decrease – cell-based, Clone20 osteoblasts, firefly luciferase, cherry-pick, set 2, Schnurri-3 inhibitor project, dose response (AID 720490); format: functional;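 further: actives lower the luminescence signal as inhibitors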
[18] = viability loss in CEM21 cells – cell-based, plate reader, dry powder, cytotoxicity control, dose response (AID 687026); format: functional
[19] = blockers of HIV-1 ZM109 envelope-driven cell-cell fusion – HeLa effector, CEM target cells, luciferase, cherry-pick, dose response (AID 652058); format: functional, cell-based;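 further: luciferase signal from HIV-1 Env mediated cell-cell fusion of effector and target cells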
[20] = blockers of HIV-1 envelope-mediated cell-cell fusion – cherry-pick, dose response (AID 652057); format: functional, cell-based
[21] = HIV-1 AD8 envelope cell-cell fusion blockers – cherry-pick, dose response (AID 652062); format: functional, cell-based;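 further: luciferase signal from cell-cell fusion driven by HIV-1 clade B AD8 Env; potency is for inhibitors of fusion seen as a drop in luminescence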
[22] = off-target signal loss in HeLa-CEM21 co-culture – HeLa F-luc CTL cells, cherry-picked, counter-screen for HIV-1 Env fusion inhibitor project, dose response (AID 652040); format: functional, cell-based;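 further: potency for signal decrease marking cytotoxic or nonspecific inhibition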
[23] = inhibition of Env-driven cell fusion – HIV entry, plate reader, dry powder, dose response (AID 687023); format: functional, cell-based

Sequence of FAD-linked sulfhydryl oxidase ALR (P55789 whole entry): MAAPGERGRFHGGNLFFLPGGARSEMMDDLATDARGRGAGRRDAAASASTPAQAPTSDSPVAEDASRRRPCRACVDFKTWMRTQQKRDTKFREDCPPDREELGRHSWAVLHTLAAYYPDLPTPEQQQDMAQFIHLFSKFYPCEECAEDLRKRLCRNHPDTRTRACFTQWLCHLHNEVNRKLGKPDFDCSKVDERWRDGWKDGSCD
Sequence of Protein Wnt-3a (P27467 whole entry, the tested form may be a part): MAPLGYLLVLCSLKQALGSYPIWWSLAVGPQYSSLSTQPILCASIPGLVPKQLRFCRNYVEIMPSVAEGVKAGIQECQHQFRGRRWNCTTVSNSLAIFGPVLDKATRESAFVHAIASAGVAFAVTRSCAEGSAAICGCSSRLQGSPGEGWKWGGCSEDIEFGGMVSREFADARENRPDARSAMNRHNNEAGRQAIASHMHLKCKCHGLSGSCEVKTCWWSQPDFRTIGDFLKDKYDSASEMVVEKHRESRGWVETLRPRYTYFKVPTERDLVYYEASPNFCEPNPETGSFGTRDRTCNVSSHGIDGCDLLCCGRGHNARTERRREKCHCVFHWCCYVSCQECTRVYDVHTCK
Sequence of Nucleotide-binding oligomerization domain-containing protein 2 (Q9HC29 whole entry, the tested form may be a part): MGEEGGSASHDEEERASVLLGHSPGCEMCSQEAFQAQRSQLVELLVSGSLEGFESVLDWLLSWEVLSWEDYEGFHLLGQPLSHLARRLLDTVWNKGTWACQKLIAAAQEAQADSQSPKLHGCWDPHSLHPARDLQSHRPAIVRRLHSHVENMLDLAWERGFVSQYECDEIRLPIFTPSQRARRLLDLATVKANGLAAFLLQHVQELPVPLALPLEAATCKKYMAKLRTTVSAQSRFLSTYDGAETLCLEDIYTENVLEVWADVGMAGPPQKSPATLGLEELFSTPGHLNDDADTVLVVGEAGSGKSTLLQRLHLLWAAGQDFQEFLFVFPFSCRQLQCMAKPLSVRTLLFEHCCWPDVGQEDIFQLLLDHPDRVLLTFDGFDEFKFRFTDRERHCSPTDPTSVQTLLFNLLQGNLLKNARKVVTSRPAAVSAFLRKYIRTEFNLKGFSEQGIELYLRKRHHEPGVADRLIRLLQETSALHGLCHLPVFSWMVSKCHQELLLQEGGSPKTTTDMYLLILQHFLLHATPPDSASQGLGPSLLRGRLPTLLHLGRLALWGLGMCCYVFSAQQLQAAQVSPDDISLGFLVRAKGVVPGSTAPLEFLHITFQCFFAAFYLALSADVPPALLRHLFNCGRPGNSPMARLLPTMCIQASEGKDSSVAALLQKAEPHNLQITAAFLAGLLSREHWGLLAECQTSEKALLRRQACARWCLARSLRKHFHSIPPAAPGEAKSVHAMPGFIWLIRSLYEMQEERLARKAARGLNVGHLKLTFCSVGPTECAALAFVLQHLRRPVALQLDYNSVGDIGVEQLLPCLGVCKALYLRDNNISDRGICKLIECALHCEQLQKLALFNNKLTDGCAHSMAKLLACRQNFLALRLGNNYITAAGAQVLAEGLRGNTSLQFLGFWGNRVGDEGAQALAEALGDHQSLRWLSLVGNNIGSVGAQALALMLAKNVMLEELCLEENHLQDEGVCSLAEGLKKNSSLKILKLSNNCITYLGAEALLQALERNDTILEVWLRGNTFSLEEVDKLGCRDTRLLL
Sequence of Kallikrein-7 (P49862 whole entry): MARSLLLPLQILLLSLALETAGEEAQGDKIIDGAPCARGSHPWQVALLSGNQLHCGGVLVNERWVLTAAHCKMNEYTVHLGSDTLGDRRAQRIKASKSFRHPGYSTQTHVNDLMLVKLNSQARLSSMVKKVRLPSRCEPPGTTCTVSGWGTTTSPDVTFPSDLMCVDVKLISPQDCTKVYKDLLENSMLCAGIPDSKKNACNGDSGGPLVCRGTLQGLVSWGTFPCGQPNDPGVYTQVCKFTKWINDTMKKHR

SMILES: Oc1c(Cl)cc(Cl)cc1CNc1nc2ccccc2[nH]1
- IC50 [1]: 0.488 µM (active)
- AC50 [2]: 0.587 µM (active)
- IC50 [3]: 0.661 µM (active)
- IC50 [4]: 83.3 µM (inactive)
- IC50 [5]: > 83.3 µM (inactive)

- EC50 (Kallikrein-7): > 69.5 µM (inactive)
SMILES: Cc1nn(-c2ccccn2)c2nc(-c3cccs3)cc(C(=O)N3CCOCC3)c12

SMILES: COc1ccccc1N1CCN(c2ncc(C(=O)N3CCN(c4cccc(Cl)c4)CC3)c3ccccc23)CC1
- EC50 [6]: 2.29 µM (active)
- AC50 [7]: 30 µM (active)
- EC50 (HEK293 [8]): 4.31 µM (active)
- AC50 (CAAX prenyl protease 2): 9.46 µM (active)
- IC50 (HEK293 [9]): > 20 µM (inactive)
- IC50 (Protein Wnt-3a): 1.47 µM (active)
- EC50 [10]: 9.31 µM (active)
- IC50 (HEK293 [11]): 5.68 µM (active)
- AC50 (INS1): 3.93 µM (active)
- IC50 (HEK293 [12]): > 20 µM (inactive)
- AC50 [13]: 0.572 µM (active)
- EC50 [14]: > 53 µM (inactive)
- EC50 [15]: > 30 µM (not active)
- IC50 (HEK293 [16]): 4.46 µM (active)
- AC50 [17]: 1.81 µM (active)

SMILES: O=C(Nc1ccc2c(c1)CCC2)C1CCN(c2c3c(nc4ncnn24)CCC3)CC1
- AC50 [18]: > 70 µM (inactive)
- AC50 [19]: 1.4 µM (active)
- AC50 [20]: 9.44 µM (active)
- AC50 [21]: 3.88 µM (active)
- AC50 [22]: 41.2 µM (active)
- AC50 [23]: 5.08 µM (active)
